Read-outs that look alike come from different tables or passages of the source.
Legend:
COX-1 = biological target: T1, COX-1 (Homo sapiens, UniProt P23219); assay: Human COX-1 enzyme activity in human whole blood (A23187-stimulated, thromboxane B2 EIA); assay type: cell-based; conditions: for inhibition at 100 µM: read-out: COX-1 Inhibition (% at 100 μM)
T1 construct: endogenous in cells; host or cells: heparinised human whole blood from donors, stimulated with the calcium ionophore A23187
Experimental: (§1) The blood was transported to the laboratory on ice packs and used within 1.5 hours of collection. Upon receipt in the laboratory, the blood was allowed to come to room temperature for 15 minutes prior to distribution in 1 mL aliquots per well of 24 well tissue culture plates. […] Test compounds were dissolved in DMSO, at 1000 fold the final desired concentration, and further diluted, as indicated, in DMSO. One μL of each dilution of the test compound was added per well, in duplicate wells; wells not receiving test compound (e.g., basal, background or control wells) received 1 μL DMSO. […] Louis, Mo., Catalogue No. […] Louis, Mo., Catalogue No. […] (Again, basal, background or control wells not stimulated with A23187 received 1 μL of DMSO.) At 5 hours after the addition of the test compound, all incubations were terminated by placement on ice and the addition of 2 mM EGTA (100 μL of 20 mM EGTA, tetrasodium, in PBS (phosphate buffered saline) without Ca^++ and Mg^++, pH 7.2)). […] One hundred μL of plasma was removed from each blood sample and added to 1 mL of methanol in new 15 mL polypropylene centrifuge tubes, vortexed, and stored overnight at -20° C. […] The samples were assayed for thromboxane B2 using EIA kits supplied by Cayman Chemical Co. […] The % inhibition for COX-1 and COX-2 enzyme activity in human whole blood by the test compounds, at the indicated concentrations, are given in Table 1.

COX-2 = biological target: T2, COX-2 (Homo sapiens, UniProt P35354); assay: Human COX-2 enzyme activity in human whole blood (LPS-induced, thromboxane B2 EIA); assay type: cell-based; conditions: for inhibition at 1 µM: read-out: COX-2 Inhibition (% at 1 μM); for inhibition at 10 µM: read-out: COX-2 Inhibition (% at 10 μM)
T2 construct: To induce COX-2, lipopolysaccharide (LPS) from E. coli; endogenous in cells; host or cells: heparinised human whole blood from donors, with COX-2 induced by E. coli LPS
T2 sequence (P35354 18-604): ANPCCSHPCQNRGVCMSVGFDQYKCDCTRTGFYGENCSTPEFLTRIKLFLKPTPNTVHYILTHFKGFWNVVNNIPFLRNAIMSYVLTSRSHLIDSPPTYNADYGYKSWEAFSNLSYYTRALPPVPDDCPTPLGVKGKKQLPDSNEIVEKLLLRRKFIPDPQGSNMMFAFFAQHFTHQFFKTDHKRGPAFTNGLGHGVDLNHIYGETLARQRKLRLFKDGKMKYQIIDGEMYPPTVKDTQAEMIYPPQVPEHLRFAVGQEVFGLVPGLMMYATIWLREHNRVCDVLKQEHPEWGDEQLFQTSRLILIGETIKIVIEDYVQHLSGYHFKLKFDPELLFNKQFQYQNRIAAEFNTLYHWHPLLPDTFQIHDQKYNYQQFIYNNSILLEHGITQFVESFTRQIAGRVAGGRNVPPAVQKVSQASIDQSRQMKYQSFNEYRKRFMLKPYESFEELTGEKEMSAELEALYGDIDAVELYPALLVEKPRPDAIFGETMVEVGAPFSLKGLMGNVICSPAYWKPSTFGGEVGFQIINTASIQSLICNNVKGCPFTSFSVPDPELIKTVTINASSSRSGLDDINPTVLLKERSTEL
Experimental: as §1

[1] = 100 μM, human whole blood, A23187 stimulation
[2] = 1 μM, human whole blood, LPS induction
[3] = 10 μM, human whole blood, LPS induction

T1 sequence (P23219 24-599): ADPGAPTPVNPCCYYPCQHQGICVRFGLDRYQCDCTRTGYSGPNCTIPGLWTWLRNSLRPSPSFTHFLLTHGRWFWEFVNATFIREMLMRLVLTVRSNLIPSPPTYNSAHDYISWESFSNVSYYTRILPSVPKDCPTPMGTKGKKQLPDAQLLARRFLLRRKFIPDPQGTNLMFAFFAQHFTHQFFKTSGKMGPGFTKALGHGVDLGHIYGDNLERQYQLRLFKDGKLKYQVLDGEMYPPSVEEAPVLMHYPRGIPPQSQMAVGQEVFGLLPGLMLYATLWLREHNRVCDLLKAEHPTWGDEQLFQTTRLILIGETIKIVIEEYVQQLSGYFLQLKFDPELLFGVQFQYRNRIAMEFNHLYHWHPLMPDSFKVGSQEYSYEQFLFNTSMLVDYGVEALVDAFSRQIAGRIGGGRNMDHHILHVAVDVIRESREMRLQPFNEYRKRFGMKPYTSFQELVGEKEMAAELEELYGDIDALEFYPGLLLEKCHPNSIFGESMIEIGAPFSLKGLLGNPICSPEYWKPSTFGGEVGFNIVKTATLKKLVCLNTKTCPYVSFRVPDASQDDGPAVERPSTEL

`CS(=O)(=O)c1ccc(-c2cc(COCCCO[N+](=O)[O-])nn2-c2ccc(Cl)cc2)cc1` [Example 7e, 1-(1-(4-Chlorophenyl)-3-((3-(nitrooxy)propoxy)methyl)pyrazol-5-yl)-4-(methylsulfonyl)benzene] showed an inhibition at 100 µM (COX-1; [1]) of 90%, an inhibition at 1 µM (COX-2; [2]) of 65% and an inhibition at 10 µM (COX-2; [3]) of 100%.

In the case of `Cc1ccc(-n2nc(COCCCO)cc2-c2ccc(S(C)(=O)=O)cc2)cc1` [Example 8d, 1-(3-((3-Hydroxypropoxy)methyl)-1-(4-methylphenyl)pyrazol-5-yl)-4-(methylsulfonyl)benzene], the inhibition at 100 µM (COX-1; [1]) is reported as 70%, the inhibition at 1 µM (COX-2; [2]) is reported as 20% and the inhibition at 10 µM (COX-2; [3]) is reported as 90%.

`Cc1ccc(-n2nc(COCCCO[N+](=O)[O-])cc2-c2ccc(S(C)(=O)=O)cc2)cc1` [Example 8e, 1-(1-(4-methylphenyl)-3-((3-(nitrooxy)propoxy)methyl)pyrazol-5-yl)-4-(methylsulfonyl)benzene] was tested, and the inhibition at 100 µM (COX-1; [1]) was 90%, the inhibition at 1 µM (COX-2; [2]) was 50% and the inhibition at 10 µM (COX-2; [3]) was 95%.

Molecule `CS(=O)(=O)c1ccc(-c2cc(COCCCO)nn2-c2ccc(C(F)(F)F)cc2)cc1` [Example 9d, 1-(3-((3-Hydroxypropoxy)methyl)-1-(4-(trifluoromethyl)phenyl)pyrazol-5-yl)-4-(methylsulfonyl)benzene] has an inhibition at 100 µM (COX-1; [1]) of 40%, an inhibition at 1 µM (COX-2; [2]) of 30% and an inhibition at 10 µM (COX-2; [3]) of 85%.

With `CS(=O)(=O)c1ccc(-c2cc(COCCCO[N+](=O)[O-])nn2-c2ccc(C(F)(F)F)cc2)cc1` [Example 9e, 4-(Methylsulfonyl)-1-(3-((3-(nitrooxy)propoxy)methyl)-1-(4-(trifluoromethyl)phenyl)pyrazol-5-yl)benzene] the inhibition at 100 µM (COX-1; [1]) was 45%, the inhibition at 1 µM (COX-2; [2]) was 60% and the inhibition at 10 µM (COX-2; [3]) was 100%.

With `COc1ccc(-n2nc(COCCCO)cc2-c2ccc(S(C)(=O)=O)cc2)cc1` [Example 10d, 1-(3-((3-Hydroxypropoxy)methyl)-1-(4-methoxyphenyl)pyrazol-5-yl)-4-(methylsulfonyl)benzene] the inhibition at 100 µM (COX-1; [1]) was 100%, the inhibition at 1 µM (COX-2; [2]) was 25% and the inhibition at 10 µM (COX-2; [3]) was 100%.

`COc1ccc(-n2nc(COCCCO[N+](=O)[O-])cc2-c2ccc(S(C)(=O)=O)cc2)cc1[N+](=O)[O-]` [Example 10e, 1-(1-(4-Methoxy-3-nitrophenyl)-3-((3-(nitrooxy)propoxy)methyl)pyrazol-5-yl)-4-(methylsulfonyl)benzene] was tested, and the inhibition at 100 µM (COX-1) was 85%, the inhibition at 1 µM (COX-2) was 70% and the inhibition at 10 µM (COX-2) was 100%.

`CS(=O)(=O)c1ccc(-c2cc(/C=C\CCO)nn2-c2ccccc2)cc1` [Example 11d] was tested, and the “COX-1 Inhibition (% at 100 μM)” value (COX-1; [1]) was 25%, the “COX-2 Inhibition (% at 1 μM)” value (COX-2; [2]) was 0% and the “COX-2 Inhibition (% at 10 μM)” value (COX-2; [3]) was 30%.

With `CS(=O)(=O)c1ccc(-c2cc(/C=C\CCO[N+](=O)[O-])nn2-c2ccccc2)cc1` [Example 11e, 1-(3-((1Z)-4-(Nitrooxy)but-1-enyl)-1-phenylpyrazol-5-yl)-4-(methylsulfonyl)benzene] the inhibition at 100 µM (COX-1; [1]) was 90%, the inhibition at 1 µM (COX-2; [2]) was 95% and the inhibition at 10 µM (COX-2; [3]) was 100%.

With `CS(=O)(=O)c1ccc(-c2cc(/C=C/CCO[N+](=O)[O-])nn2-c2ccccc2)cc1` [Example 11f, 1-(3-((1E)-4-(Nitrooxy)but-1-enyl)-1-phenylpyrazol-5-yl)-4-(methylsulfonyl)benzene] the inhibition at 100 µM (COX-1; [1]) was 85%, the inhibition at 1 µM (COX-2; [2]) was 55% and the inhibition at 10 µM (COX-2; [3]) was 90%.

For `Cc1ccc(-n2nc(C(=O)CCCO)cc2-c2ccc(S(C)(=O)=O)cc2)cc1` [Example 12d, 4-Hydroxy-1-(1-(4-methylphenyl)-5-(4-(methylsulfonyl)phenyl)pyrazol-3-yl)butan-1-one], the inhibition at 100 µM (COX-1; [1]) was 0%, the inhibition at 1 µM (COX-2; [2]) was 15% and the inhibition at 10 µM (COX-2; [3]) was 45%.

Molecule `CS(=O)(=O)c1ccc(-c2cc(C(=O)CCCO)nn2-c2ccc(F)cc2)cc1` [Example 13d, 1-(1-(4-Fluorophenyl)-5-(4-(methylsulfonyl)phenyl)pyrazol-3-yl)-4-hydroxybutan-1-one] has an inhibition at 100 µM (COX-1; [1]) of 0%, an inhibition at 1 µM (COX-2; [2]) of 25% and an inhibition at 10 µM (COX-2; [3]) of 25%.
